# Where two headings read alike, the source gives them in different places.
# How the values were obtained:
# [1] = dogs, cited from earlier work
# [2] = cattle; cited from earlier work
# [3] = set-up: species or system human; settings: in vivo
# Source text: Normal volunteers with no evidence or history of diabetes mellitus or of cardiac, liver, renal or pulmonary diseases were studied. The subjects consisted of 3 males and 1 female, ranging in age from 31 to 37 years, in body weight from 47 to 92 kg, and in body mass index (BMI) from 19.2 to 25.5. The purpose and possible risks of the study were explained to all subjects, and their voluntary written consent was obtained. The study protocol was approved by the Committee for the Protection of Human Subjects of the Institutional Review Board at Vanderbilt University School of Medicine. All studies were performed at the Clinical Research Center (CRC). Subjects were placed on balanced weight-maintenance diets for at least one week before the start of the study. Meat was excluded from the subjects' diets for three days before the study and during the study.
# All studies were performed after a 10-12 hour overnight fast. On the morning of the experiment (6.30 to 7.00 hours), an 18-gauge Angiocatheter™ (Benton Dickinson, Sandy, Utah) was placed in a superficial hand vein of the nondominant arm for blood sampling. The hand was heated to 55° C. to ensure complete arterialization (Abumrad, N.N. et al., "Use of a heated superficial hand vein as an alternative site for the measurement of amino acid concentrations and for the study of glucose and alanine kinetics in man," Metabolism (1981) 30:936-940). In addition, a 16-gauge angiocatheter was inserted into the contralateral forearm vein for the infusion of L-3-[methyl-^2 H3 ]-histidine (MSD Isotopes, Montreal, Canada). Finally, another catheter was threaded retrograde into the brachial vein of the dominant arm and used for sampling of the forearm tissue.
# Each study was four days in duration. Starting at t=0 (8.00 hours), subjects were administered a bolus infusion of L-3-[methyl^2 H3 ]-histidine (D3 -3-methylhistidine) at 0.13 μmol/kg into the forearm vein of the dominant arm. The infusate was passed through a Millex-GS sterilizing filter (0.22 μm; Millipore Products Divisions, Bedford, Mass.) before the infusion. Blood samples were obtained from the superficial hand vein and from the deep forearm vein at 0, 1, 2, 5, 10, 15, 30, 45, 90, 150, 210, 270, 330, and 720 min. postinjection. During this time, the subjects were required to stay at the Clinical Research Center, although they were allowed to ambulate freely within their rooms. Free access to food and drink was allowed after the 330-min sample. After 720 min, the catheters were removed and the patients were allowed to go home. For the following three days, the subjects returned to the CRC each morning before eating for further blood sampling by percutaneous venous puncture at 1,440, 2,880, and 4,320 min postinjection. Urine was collected over 24 hour periods the day before and for three days after tracer infusion.
# Blood was collected in heparinized syringes, transferred to tubes containing Na2 EDTA (15 mg/tube), and centrifuged. The plasma obtained was immediately placed on ice. An aliquot of the plasma was processed for determination of 3-methylhistidine concentration as well as the L-3-[methyl-^2 H3 ]-histidine:3-methylhistidine isotope enrichment. The remainder of the plasma was frozen at -70° C. The urine obtained was processed for the determination of creatinine both as a measure of the completeness of the collection (Pencharz, P. B. et al., "The effect of an energy-restricted diet on the protein metabolism of obese adolescents: nitrogen-balance and whole-body nitrogen turnover," Clin. Sci. (1980) 59:13-18), and for the estimation of lean body mass (Blackburn, G. L. et al., "Nutritional and metabolic assessment of hospitalized patients," J. Parenter. Enteral. Nutr. (1977) 1:11-22). […]
# [4] = cattle, cited from earlier work
# [5] = sheep, cited from earlier work
# [6] = sheep, cited from earlier work; remark: listed apart in the source
# [7] = cited from earlier work
# [8] = cited from earlier work; remark: listed apart in the source
# [9] = adult rat, Millward et al. 1980
smiles,measurement,setting,value
Cn1cnc(C[C@H](N)C(=O)O)c1 [3-methylhistidine],3MH Production,"[1]; n=5, from model",12 µmol/kg/day
same,"M1, compartment mass",[1]; n=5,3227 nmol/kg
same,"M2, compartment mass",[1]; n=5,7973 nmol/kg
same,"M3, compartment mass",[1]; n=5,9261 nmol/kg
same,R01 mass transfer rate,[1]; n=5,9 nmol/kg/min
same,R12 mass transfer rate,[1]; n=5,329 nmol/kg/min
same,R21 mass transfer rate,[1]; n=5,319 nmol/kg/min
same,R23 mass transfer rate,[1]; n=5,56 nmol/kg/min
same,R32 mass transfer rate,[1]; n=5,56 nmol/kg/min
same,"L0,1 fractional transfer rate",[1]; number 5,.02 min⁻¹
same,"L1,2 fractional transfer rate",[1]; number 5,.06 min⁻¹
same,"L2,1 fractional transfer rate",[1]; number 5,.11 min⁻¹
same,"L2,3 fractional transfer rate",[1]; number 5,.008 min⁻¹
same,"L3,2 fractional transfer rate",[1]; number 5,.006 min⁻¹
same,Urinary 3MH loss,[1]; number 5,100 % of total
same,Urinary excretion,[2],quantitatively excreted in the urine
same,3MH Production,[3],3.1 µmol/kg/day
same,"L0,1 fractional transfer rate",[3],.004 min⁻¹
same,"L1,2 fractional transfer rate",[3],.06 min⁻¹
same,"L2,3 fractional transfer rate",[3],.002 min⁻¹
same,"L3,2 fractional transfer rate",[3],.009 min⁻¹
same,"M1, compartment mass",[3],603 nmol/kg
same,"M2, compartment mass",[3],912 nmol/kg
same,"M3, compartment mass",[3],7938 nmol/kg
same,Plasma levels of 3-methylhistidine over time,[3],did not change over the four days of the study
same,R01 mass transfer rate,[3],2.2 nmol/kg/min
same,R12 mass transfer rate,[3],53 nmol/kg/min
same,R21 mass transfer rate,[3],51 nmol/kg/min
same,R23 mass transfer rate,[3],9.6 nmol/kg/min
same,R32 mass transfer rate,[3],7.9 nmol/kg/min
same,Size of compartment 2 relative to compartment 1,[3],1.5 times
same,Size of compartment 3 relative to compartment 1,[3],13 times
same,Urinary 3MH loss,[3],100 % of total
same,"L2,1 fractional transfer rate",[4]; comparison,0.18 min⁻¹
same,3MH Production,"[4]; n=36, from model",6.2 µmol/kg/day
same,"M1, compartment mass",[4]; n=36,806 nmol/kg
same,"M2, compartment mass",[4]; n=36,2106 nmol/kg
same,"M3, compartment mass",[4]; n=36,7803 nmol/kg
same,R01 mass transfer rate,[4]; n=36,4.2 nmol/kg/min
same,R12 mass transfer rate,[4]; n=36,107 nmol/kg/min
same,R21 mass transfer rate,[4]; n=36,103 nmol/kg/min
same,R23 mass transfer rate,[4]; n=36,9.6 nmol/kg/min
same,R32 mass transfer rate,[4]; n=36,5.4 nmol/kg/min
same,"L0,1 fractional transfer rate",[4]; number 39,.006 min⁻¹
same,"L1,2 fractional transfer rate",[4]; number 39,.06 min⁻¹
same,"L2,1 fractional transfer rate",[4]; number 39,.18 min⁻¹
same,"L2,3 fractional transfer rate",[4]; number 39,.002 min⁻¹
same,"L3,2 fractional transfer rate",[4]; number 39,.003 min⁻¹
same,Urinary 3MH loss,[4]; number 39,100 % of total
same,3-methylhistidine excreted in urine,[5],approximately 15%
same,Urinary excretion,[5]; retained in muscle as balenine,not quantitatively excreted in urine
same,3MH Production,"[6]; n=36, from model",10.1 µmol/kg/day
same,"M1, compartment mass",[6]; n=36,4693 nmol/kg
same,"M2, compartment mass",[6]; n=36,11634 nmol/kg
same,"M3, compartment mass",[6]; n=36,16494 nmol/kg
same,R01 mass transfer rate,[6]; n=36,1.4 nmol/kg/min
same,R03 mass transfer rate,[6]; n=36,5.7 nmol/kg/min
same,R12 mass transfer rate,[6]; n=36,930 nmol/kg/min
same,R21 mass transfer rate,[6]; n=36,928 nmol/kg/min
same,R23 mass transfer rate,[6]; n=36,80 nmol/kg/min
same,R32 mass transfer rate,[6]; n=36,84 nmol/kg/min
same,"L0,1 fractional transfer rate",[6]; number 40,.0003 min⁻¹
same,"L0,3 fractional transfer rate",[6]; number 40,.0004 min⁻¹
same,"L1,2 fractional transfer rate",[6]; number 40,.08 min⁻¹
same,"L2,1 fractional transfer rate",[6]; number 40,.21 min⁻¹
same,"L2,3 fractional transfer rate",[6]; number 40,.005 min⁻¹
same,"L3,2 fractional transfer rate",[6]; number 40,.007 min⁻¹
same,Urinary 3MH loss,[6]; number 40,17 % of total
same,Urinary excretion of total daily 3-methylhistidine produced,[6],15%
same,3-methylhistidine excretion during exercise,[7]; humans,insignificant increase
same,3-methylhistidine excretion during recovery from exercise,[7]; humans,significant increase
same,Urinary excretion,[7]; man,quantitatively excreted in the urine
same,Contribution of skin and intestine to 3-methylhistidine excreted per day in urine,"[8]; adult rat, Millward and Bates",17%
same,Contribution of gastrointestinal tract to 3-methylhistidine excreted,[8]; [9],10%
same,Contribution of skeletal muscle to 3-methylhistidine excreted,[8]; [9],25%
same,Contribution of skin to 3-methylhistidine excreted,[8]; [9],7%
same,Reutilization for protein synthesis,[8]; no specific tRNA,not reutilized for protein synthesis
same,Share of total bound 3-methylhistidine in skeletal muscle,"[8]; rat organs, Haverberg et al., skin and intestine not assessed",98%
same,Urinary excretion,[8]; rat,quantitatively excreted in the urine
same,Contribution of small intestine to 24-hour urinary excretion,"[8]; rats, duodenoileostomy",did not make a significant contribution

# Reference: patent US5628328A, “Method for measuring muscle mass” (priority 1995, dated 1997)
